Experimental data reported in patent US8088920B2, “3-trifluoromethyl-pyrazine-2-carboxylic acid amide derivatives as HDL-cholesterol raising agents” (Hoffmann-La Roche Inc., priority 2008, dated 2012).

The molecules below were run on THP-1 cells (assay: Cholesterol efflux assay). Details: Homo sapiens; THP-1 cells differentiated to macrophages, [3H]cholesterol loaded, efflux induced by 10 μg/ml Apolipoprotein AI, 6 hrs; percent stimulation over DMSO.
Format: cell-based
Method: The ability of compounds of the invention to stimulate cholesterol efflux is determined in replicate cultures of THP-1 cells in 96-well microplates. Cells are plated at an initial density of 150,000 cells/well and differentiated to macrophages with the addition of PMA (100 ng/ml) for 72 hrs in 10% fetal bovine serum, 3 μl/L of b-mercaptoethanol, RPMI-1640 medium. Cells are washed once with RPMI-1640 and loaded with RPMI-1640 medium containing 2% FCS, 50 μg/ml acetylated LDL, and 10 μCi/ml [^3H]cholesterol for 48 hours at 37° C. After loading the cells are washed once with RPMI-1640 and incubated with the compound of interest from DMSO solutions for an additional 24 hrs in RPMI-1640 medium containing 1 mg/ml fatty acid free-bovine serum albumin (BSA). Upon incubation cells are washed once, and cholesterol efflux is induced by the addition of 10 μg/ml Apolipoprotein AI in RPMI-1640 containing 1 mg/ml BSA and in the presence of the compound for an additional 6 hrs. Following incubation radioactivity is determined in the supernatants and cholesterol efflux is expressed as the percent stimulation over replicate cultures treated only with DMSO. Sigmoidal curves were fitted using the XLfit3 program (ID Business Solutions Ltd. UK) and EC50 values were determined.

EC50 [nM]	SMILES
570	CC(O)(CNC(=O)c1nc(-c2ccc(Cl)cc2)c(OCC(F)(F)F)nc1C(F)(F)F)C1CC1 (stereo not drawn) [Example 2, 6-(4-chloro-phenyl)-5-(2,2,2-trifluoro-ethoxy)-3-trifluoromethyl-pyrazine-2-carboxylic acid (2-cyclopropyl-2-hydroxy-propyl)-amide]
610	O=C(N[C@@H]1CCCC[C@H]1O)c1nc(-c2ccc(Cl)cc2)c(OCC2CC2)nc1C(F)(F)F [Example 1, 6-(4-chloro-phenyl)-5-cyclopropylmethoxy-3-trifluoromethyl-pyrazine-2-carboxylic acid ((1R,2R)-2-hydroxy-cyclohexyl)-amide]

SMILES	EC50 [nM]
CC(O)(CNC(=O)c1nc(-c2ccc(Cl)cc2)c(OCC2CC2)nc1C(F)(F)F)C1CC1 (stereo not drawn) [Example 3, 6-(4-chloro-phenyl)-5-cyclopropylmethoxy-3-trifluoromethyl-pyrazine-2-carboxylic acid (2-cyclopropyl-2-hydroxy-propyl)-amide]	720
